# Reference: ChEMBL document CHEMBL1122575, “Dependence of beta-lactamase stability on substructures within beta-lactam antibiotics” (J Med Chem, 1984)
# How the values were obtained:
# [1] = Relative hydrolysis rate (RHR) was evaluated against RTEM enzyme; assay type: ADME
# Escherichia coli [2] = assay: Compound was evaluated for the antibacterial activity against Escherichia coli (RTEM+organism) at 10E6 colony forming units; assay type: functional
# Enterobacter cloacae = assay: Compound was evaluated for the antibacterial activity against Enterobacter cloacae with the strains beta-Lactamase-positive (LAC+); assay type: functional
# Providencia rettgeri [3] = assay: Compound was evaluated for the antibacterial activity against Providencia rettgeri with the strains beta-Lactamase-positive (LAC+); assay type: functional
# Escherichia coli [4] = assay: Compound was evaluated for the antibacterial activity against Escherichia coli (RTEM+organism). 10E6 colony forming units are observed; assay type: functional
# Escherichia coli [5] = assay: cEscherichia coli with strain NIHJ (beta-Lactamase-negative (LAC-)); assay type: functional
# [6] = Relative hydrolysis rate (RHR) was evaluated against K1 enzyme; assay type: ADME
# Escherichia coli [7] = assay: Compound was evaluated for the antibacterial activity against Escherichia coli (RTEM-organism) at 10e4/10e6 colony forming units; <0.05/0.1; assay type: functional
# Klebsiella aerogenes [8] = assay: Compound was evaluated for the antibacterial activity against Klebsiella aerogenes with strain K1+ at 10e4/10e6 colony forming units; 12.5/>100; assay type: functional
# Klebsiella aerogenes [9] = assay: Compound was evaluated for the antibacterial activity against Klebsiella aerogenes with strain K1- at 10e4/10e6 colony forming units; 0.05/0.1; assay type: functional
# Escherichia coli [10] = assay: Compound was evaluated for the antibacterial activity against Escherichia coli (RTEM+organism) at 10e4/10e6 colony forming units; 0.1/0.1; assay type: functional
# Escherichia coli [11] = assay: Relative hydrolysis rate (RHR) was evaluated against Escherichia coli with the strain RTEM; assay type: ADME, organism-based
# Escherichia coli [12] = assay: Compound was evaluated for the antibacterial activity against Escherichia coli (RTEM+organism). 10e4/10e6 colony forming units are observed; 3.1/25; assay type: functional
# Providencia rettgeri [13] = assay: Compound was evaluated for the antibacterial activity against Providencia rettgeri with the strain beta-Lactamase-negative (LAC-); assay type: functional
# Escherichia coli [14] = assay: Compound was evaluated for the antibacterial activity against Escherichia coli (RTEM+organism) at 10e4/10e6 cfu; 0.8/3.1; assay type: functional
# Escherichia coli [15] = assay: Compound was evaluated for the antibacterial activity against Escherichia coli (RTEM-organism) at 10e4/10e6 cfu; 1.6/1.6; assay type: functional
# Escherichia coli [16] = assay: Compound was evaluated for the antibacterial activity against Escherichia coli (RTEM+organism) at 10e4/10e6 colony forming units; 0.8/3.1; assay type: functional
# Escherichia coli [17] = assay: Compound was evaluated for the antibacterial activity against Escherichia coli (RTEM+organism) at 10e4/10e6 cfu; 0.4/1.6; assay type: functional
# Escherichia coli [18] = assay: Compound was evaluated for the antibacterial activity against Escherichia coli (RTEM-organism) at 10e4/10e6 cfu; 0.1/0.2; assay type: functional
# Klebsiella aerogenes [19] = assay: Compound was evaluated for the antibacterial activity against Klebsiella aerogenes with strain K1- at 10e4/10e6 cfu; 0.2/0.2; assay type: functional
# Klebsiella aerogenes [20] = assay: Compound was evaluated for the antibacterial activity against Klebsiella aerogenes with strain K1+ at 10e4/10e6 cfu; 100/>100; assay type: functional
# Escherichia coli [21] = assay: Compound was evaluated for the antibacterial activity against Escherichia coli (RTEM- organism); 0.1/0.4; assay type: functional
# Escherichia coli [22] = assay: cCompound was evaluated for the antibacterial activity against Escherichia coli (RTEM+ organism); 0.4/0.2; assay type: functional
# Klebsiella aerogenes [23] = assay: Compound was evaluated for the antibacterial activity against Klebsiella aerogenes with strain K1-; 0.8/0.8; assay type: functional
# Klebsiella aerogenes [24] = assay: Compound was evaluated for the antibacterial activity against Klebsiella aerogenes with strain K1; 100/>100; assay type: functional
# [25] = Compound was evaluated for the relative Vmax against RTEM enzyme; assay type: ADME
# [26] = Compound was evaluated for the percentage remaining after 24 hr hydrolysis at a pH 7 at 37 degree Centigrade; settings: buffer
# Escherichia coli [27] = assay: Percentage zonal reduction was evaluated against Escherichia coli; assay type: functional
# Staphylococcus aureus [28] = assay: Percentage zonal reduction was evaluated against Staphylococcus aureus; assay type: functional
# Escherichia coli [29] = assay: Compound was evaluated for the antibacterial activity against Escherichia coli (RTEM-organism) at 10e4/10e6 cfu; 0.2/0.4; assay type: functional
# Escherichia coli [30] = assay: Compound was evaluated for the antibacterial activity against Escherichia coli (RTEM+organism) at 10e4/10e6 cfu; 0.1/0.4; assay type: functional
# Klebsiella aerogenes [31] = assay: Compound was evaluated for the antibacterial activity against Klebsiella aerogenes with strain K1- at 10e4/10e6 cfu; 0.1/0.4; assay type: functional
# Klebsiella aerogenes [32] = assay: Compound was evaluated for the antibacterial activity against Klebsiella aerogenes with strain K1+ at 10e4/10e6 cfu; 0.2/0.8; assay type: functional
# Escherichia coli [33] = assay: Compound was evaluated for the antibacterial activity against Escherichia coli (RTEM-organism) at 10e4/10e6 cfu; 0.2/0.2; assay type: functional
# Escherichia coli [34] = assay: Compound was evaluated for the antibacterial activity against Escherichia coli (RTEM+organism) at 10e4/10e6 cfu; 0.1/0.2; assay type: functional
# Klebsiella aerogenes [35] = assay: Compound was evaluated for the antibacterial activity against Klebsiella aerogenes with strain K1+ at 10e4/10e6 cfu; 6.3/>100; assay type: functional
# Klebsiella aerogenes [36] = assay: Compound was evaluated for the antibacterial activity against Klebsiella aerogenes with strain K1- at 10e4/10e6 cfu; <0.05/0.1; assay type: functional
# [37] = Relative Vmax was reported; assay type: ADME
# Staphylococcus aureus [38] = assay: Compound was evaluated for the antibacterial activity against Staphylococcus aureus with the strain beta-Lactamase-positive (LAC+)/beta-Lactamase-negative (LAC-); 2/1; assay type: functional
# Staphylococcus aureus [39] = assay: Relative hydrolysis rate (RHR) was evaluated against Staphylococcus aureus with the strain FS108; assay type: ADME, organism-based
# Staphylococcus aureus [40] = assay: Compound was evaluated for the antibacterial activity against Staphylococcus aureus with the strain 209P; assay type: functional
# Escherichia coli [41] = assay: Compound was evaluated for the antibacterial activity against Escherichia coli (RTEM+organism) at 10e4/10e6 colony forming units; 25/100; assay type: functional
# Escherichia coli [42] = assay: Compound was evaluated for the antibacterial activity against Escherichia coli (RTEM+organism) at 10e4/10e6 cfu; 6.3/>100; assay type: functional
# Escherichia coli [43] = assay: Compound was evaluated for the antibacterial activity against Escherichia coli (RTEM-organism) at 10e4/10e6 cfu; 0.4/1.6; assay type: functional
# Klebsiella aerogenes [44] = assay: Compound was evaluated for the antibacterial activity against Klebsiella aerogenes with strain K1- at 10e4/10e6 cfu; 0.4/1.6; assay type: functional
# Escherichia coli [45] = assay: Compound was evaluated for the relative Vmax against Escherichia coli with strain 609 (beta-Lactamase-positive (LAC+); assay type: ADME, organism-based; settings: in vivo
# Staphylococcus aureus [46] = assay: Compound was evaluated for the antibacterial activity against Staphylococcus aureus with the strains beta-Lactamase-positive (LAC+)/ beta-Lactamase-negative (LAC-); 64/0.03; assay type: functional
smiles,measurement,setting,value
CO/N=C(\C(=O)N[C@@H]1C(=O)N2C(C(=O)O)=C(COC(C)=O)CSC12)c1csc(N)n1 (some centres undefined),RHR,[1],100
same,MIC,Escherichia coli [2],0.1 µg/mL
Cn1nnnc1SCC1=C(C(=O)[O-])N2C(=O)[C@@H](NC(=O)[C@@H](NC(N)=O)c3ccco3)C2SC1.[Na+] (some centres undefined),MIC,Enterobacter cloacae,0.6 µg/mL
same,MIC,Providencia rettgeri [3],0.4 µg/mL
CO/N=C(\C(=O)N[C@@H]1C(=O)N2C(C(=O)O)=C(COC(C)=O)C[S@@+]([O-])C12)c1csc(N)n1 (some centres undefined),RHR,[1],160
same,MIC,Escherichia coli [4],1.6 µg/mL
Cn1nnnc1SCC1=C(C(=O)[O-])N2C(=O)[C@@H](NC(=O)[C@H](NC(N)=O)c3ccco3)C2SC1.[Na+] (some centres undefined),MIC,Enterobacter cloacae,25 µg/mL
same,MIC,Providencia rettgeri [3],12.5 µg/mL
CO/N=C(\C(=O)N[C@@H]1C(=O)N2C(C(=O)O)=C(COC(C)=O)C[S@+]([O-])C12)c1csc(N)n1 (some centres undefined),RHR,[1],0
same,MIC,Escherichia coli [2],0.1 µg/mL
Cn1nnnc1SCC1=C(C(=O)O)N2C(=O)C(NC(=O)C(C(=O)O)c3ccc(O)cc3)C2SC1 (centres undefined),RHR,[1],0.96
same,MIC,Escherichia coli [5],3.13 µg/mL
CO/N=C(/C(=O)N[C@@H]1C(=O)N(S(=O)(=O)[O-])[C@@H]1C)c1csc(N)n1.[K+],RHR,[6],6.4
same,RHR,[1],0.3
same,MIC,Escherichia coli [7],< 0.05 µg/mL
same,MIC,Klebsiella aerogenes [8],12.5 µg/mL
same,MIC,Klebsiella aerogenes [9],0.05 µg/mL
same,MIC,Escherichia coli [10],0.1 µg/mL
CO/N=C(\C(=O)N[C@H]1CN(S(=O)(=O)[O-])C1=O)c1csc(N)n1.[K+],RHR,Escherichia coli [11],106
same,RHR,[1],12
same,MIC,Escherichia coli [12],3.1 µg/mL
same,MIC,Providencia rettgeri [13],< 0.05 µg/mL
CC(C)(O/N=C(/C(=O)N[C@H]1CN(C(=O)NS(C)(=O)=O)C1=O)c1csc(N)n1)C(=O)[O-].[K+],MIC,Escherichia coli [14],0.8 µg/mL
same,MIC,Escherichia coli [15],1.6 µg/mL
CC(C)(O/N=C(\C(=O)N[C@H]1CN(S(=O)(=O)[O-])C1=O)c1csc(N)n1)C(=O)[O-].[K+].[K+],RHR,[1],2.3
same,MIC,Escherichia coli [16],0.8 µg/mL
CO/N=C(/C(=O)N[C@@H]1C(=O)N(S(=O)(=O)[O-])[C@H]1C)c1csc(N)n1.[K+],RHR,[6],20
same,RHR,[1],1
same,MIC,Escherichia coli [17],0.4 µg/mL
same,MIC,Escherichia coli [18],0.1 µg/mL
same,MIC,Klebsiella aerogenes [19],0.2 µg/mL
same,MIC,Klebsiella aerogenes [20],100 µg/mL
C#C[C@@H]1[C@H](NC(=O)/C(=N/OC)c2csc(N)n2)C(=O)N1S(=O)(=O)[O-].[K+],MIC,Escherichia coli [21],0.1 µg/mL
same,MIC,Escherichia coli [22],0.4 µg/mL
same,MIC,Klebsiella aerogenes [23],0.8 µg/mL
same,MIC,Klebsiella aerogenes [24],> 100 µg/mL
CC(=O)N[C@H]1CN(S(=O)(=O)[O-])C1=O.[K+],RVmax,[25],12
same,remaining at 24 h,[26],> 80%
CC1=C(C(=O)O)N2C(=O)[C@@H](NC(=O)[C@@H](N)C3=CCC=CC3)C2SC1 (some centres undefined),Zone reduction,Escherichia coli [27],12%
same,Zone reduction,Staphylococcus aureus [28],25%
CO/N=C(\C(=O)NC1CN(S(=O)(=O)[O-])C1=O)c1csc(N)n1.[K+] (centres undefined),RHR,Escherichia coli [11],< 0.02
same,MIC,Providencia rettgeri [13],> 100 µg/mL
CC[C@@H]1[C@H](NC(=O)/C(=N/OC)c2csc(N)n2)C(=O)N1S(=O)(=O)[O-].[K+],MIC,Escherichia coli [29],0.2 µg/mL
same,MIC,Escherichia coli [30],0.1 µg/mL
same,MIC,Klebsiella aerogenes [31],0.1 µg/mL
same,MIC,Klebsiella aerogenes [32],0.2 µg/mL
C=C[C@@H]1[C@H](NC(=O)/C(=N/OC)c2csc(N)n2)C(=O)N1S(=O)(=O)[O-].[K+],MIC,Escherichia coli [33],0.2 µg/mL
same,MIC,Escherichia coli [34],0.1 µg/mL
same,MIC,Klebsiella aerogenes [35],6.3 µg/mL
same,MIC,Klebsiella aerogenes [36],< 0.05 µg/mL
COc1cccc(OC)c1C(=O)N[C@@H]1C(=O)N2C1SC(C)(C)C2C(=O)O (some centres undefined),RVmax,[37],0.04
same,MIC,Staphylococcus aureus [38],2 µg/mL
CC1(C)SC2[C@@H](NC(=O)Cc3ccccc3)C(=O)N2C1C(=O)O (some centres undefined),RHR,Staphylococcus aureus [39],2.2
same,MIC,Staphylococcus aureus [40],1.6 µg/mL
CO[C@]1(NC(C)=O)CN(S(=O)(=O)[O-])C1=O.[K+],RVmax,[25],< 0.01
same,remaining at 24 h,[26],< 1%
CC(C)O/N=C(\C(=O)N[C@H]1CN(S(=O)(=O)[O-])C1=O)c1csc(N)n1.[K+],RHR,[1],7
same,MIC,Escherichia coli [41],25 µg/mL
CO/N=C(/C(=O)N[C@H]1CN(S(=O)(=O)[O-])C1=O)c1csc(N)n1.[K+],RHR,[6],106
same,RHR,[1],12
same,MIC,Escherichia coli [42],6.3 µg/mL
same,MIC,Escherichia coli [43],0.4 µg/mL
same,MIC,Klebsiella aerogenes [44],0.4 µg/mL
same,MIC,Klebsiella aerogenes [20],100 µg/mL
CC1=C(C(=O)O)N2C(=O)[C@@H](NC(=O)[C@H](N)c3ccccc3)[C@H]2SC1 [CEPHALEXIN ANHYDROUS],Zone reduction,Escherichia coli [27],27%
same,Zone reduction,Staphylococcus aureus [28],48%
O=C(Cc1cccs1)N[C@@H]1C(=O)N2C(C(=O)[O-])=C(C[n+]3ccccc3)CS[C@H]12 [CEPHALORIDINE],RHR,[6],100
same,RHR,[1],100
same,RVmax,Escherichia coli [45],100
same,RVmax,[25],100
CC1(C)S[C@@H]2[C@H](NC(=O)Cc3ccccc3)C(=O)N2[C@H]1C(=O)O [PENICILLIN G],RHR,Staphylococcus aureus [39],100
same,RVmax,[37],1
same,MIC,Staphylococcus aureus [46],64 µg/mL
same,MIC,Staphylococcus aureus [40],0.065 µg/mL
